Marks after values point to notes of the source that are not given here.
How the values were obtained:
[1] = test system: Zucker obese (fa/fa) rats; test: Vascular changes in aorta and coronary arteries at necropsy; format: in vivo, rat
Description: All experiments were carried out in accordance with the regulations of the Institutional Animal Care and Use Committee of the University of South Carolina. Female Zucker obese (fa/fa) rats 6 weeks old, (n=14) and lean (LN) littermates (Fa/fa), also 6 weeks old (n=7) were purchased from Charles River Laboratories (Wilmington, Mass.). The fa/fa rats were divided randomly into two groups of 7 each, untreated fatty control (FC) and PM-treated (FPM) animals, the latter group receiving 2 g PM/L in the drinking water. […] All animals were housed individually with a light dark cycle of 12 hours each, and had free access to food and water. Blood was drawn from anaesthetized (isoflurane) rats by heart puncture and transferred into heparinized vacutainer tubes on ice. Plasma was separated from whole blood within 30 min by centrifugation in a refrigerated benchtop centrifuge; aliquots of plasma were stored at −70° C. until time of analysis. Rats were then killed by over-anesthetization, and liver and kidneys were removed, and both organs rinsed in phosphate buffered saline, and weighed. One kidney was cut in half transversely, and one half was removed for fixation (buffered formalin) for light microscopy. The remaining kidney and liver samples were frozen at −70° C. […]

[2] = test system: advanced lipoxidation end-products (ALEs); details: lipid peroxidation reactions in vitro; cited from earlier work
[3] = test system: Sprague-Dawley and Zucker rats; details: rat, in vivo
Description: (§1) All experiments were carried out in accordance with the regulations of the Institutional Animal Care and Use Committee of the University of South Carolina. Female Zucker obese (fa/fa) rats 6 weeks old, (n=14) and lean (LN) littermates (Fa/fa), also 6 weeks old (n=7) were purchased from Charles River Laboratories (Wilmington, Mass.). The fa/fa rats were divided randomly into two groups of 7 each, untreated fatty control (FC) and PM-treated (FPM) animals, the latter group receiving 2 g PM/L in the drinking water. […] All animals were housed individually with a light dark cycle of 12 hours each, and had free access to food and water.

[4] = test system: Zucker obese (fa/fa) rats; test: Systolic blood pressure by tail cuff plethysmography; format: in vivo, rat; details: initial 125-130 mm Hg at week 5; FC rose to 165 mm Hg
Description: as §1, with “and water. Blood pressure measurements were initiated at week 5 in the experiment after acclimating the animals to the apparatus, and were carried out the week following blood and urine collection. Measurements were made by tail cuff plethysmography using a Kent Scientific XBP instrument.” for “and water.”

[5] = test system: Zucker obese (fa/fa) rats; test: Glycation (fructoselysine) of skin collagen by SIM-GC/MS; format: in vivo, rat; details: insoluble skin collagen
Description: (§2) All experiments were carried out in accordance with the regulations of the Institutional Animal Care and Use Committee of the University of South Carolina. Female Zucker obese (fa/fa) rats 6 weeks old, (n=14) and lean (LN) littermates (Fa/fa), also 6 weeks old (n=7) were purchased from Charles River Laboratories (Wilmington, Mass.). The fa/fa rats were divided randomly into two groups of 7 each, untreated fatty control (FC) and PM-treated (FPM) animals, the latter group receiving 2 g PM/L in the drinking water. […] All animals were housed individually with a light dark cycle of 12 hours each, and had free access to food and water. The insoluble fraction of skin collagen was prepared by scraping the skin with a single-edged razor blade to remove hair and adventitious tissue, followed by a series of extractions with 0.5 M NaCl, 0.5 M acetic acid and chloroform/methanol (2:1 v/v), as described previously (Dyer et al., J. Clin. Invest. 91:2463-2469 (1993)). Fructoselysine (FL), a measure of glycation of collagen, and CML, CEL, MDA-lysine and HNE-lysine were assayed by isotope dilution, selected ion monitoring gas chromatography—mass spectrometry (SIM-GC/MS), and pentosidine by RP-HPLC, all as described previously (Requena et al., Biochem. J. 322:317-325 (1997)). Levels of AGEs/ALEs were expressed relative to the FL content of the collagen in order to correct for differences in mean age of the protein (see Table 1 and Discussion, below). Collagen fluorescence (Ex=370 nm, Em=440 nm) was measured after solubilization with pepsin (20 μg/mL in 0.5 M acetic, 24 hr at 37° C.), and was normalized to the hydroxyproline content of the collagen, measured as described by Stegemann and Stalder (Clin. Chim. Acta 18:267-273 (1967)).

[6] = test system: Zucker obese (fa/fa) rats; test: Fasting plasma insulin (ELISA); format: in vivo, rat
Description: All experiments were carried out in accordance with the regulations of the Institutional Animal Care and Use Committee of the University of South Carolina. Female Zucker obese (fa/fa) rats 6 weeks old, (n=14) and lean (LN) littermates (Fa/fa), also 6 weeks old (n=7) were purchased from Charles River Laboratories (Wilmington, Mass.). The fa/fa rats were divided randomly into two groups of 7 each, untreated fatty control (FC) and PM-treated (FPM) animals, the latter group receiving 2 g PM/L in the drinking water. […] All animals were housed individually with a light dark cycle of 12 hours each, and had free access to food and water. […] All assays for proteins and metabolites in plasma and urine were performed by microplate adaptations of current methods, using a Wallac Victor Model 1420 multilabel plate reader (Wallac, Inc., Gaithersburg, Md.). […] Plasma glucose was measured using the Trinder assay Kit (Sigma #315) and total glycated hemoglobin (GlcHb) by boronate affinity chromatography (Sigma kit #442-B). Total plasma triglycerides and cholesterol were analyzed by enzymatic, calorimetric, end-point assays using Sigma kits for triglycerides (#37, GPO Trinder) and total cholesterol (#352). Insulin was measured using a direct sandwich ELISA for rat insulin (ALPCO, Windham, N.H.). […]

[7] = test system: Zucker obese (fa/fa) rats; test: Renal function: urinary protein, albumin, plasma creatinine, urine volume; format: in vivo, rat
Description: All experiments were carried out in accordance with the regulations of the Institutional Animal Care and Use Committee of the University of South Carolina. Female Zucker obese (fa/fa) rats 6 weeks old, (n=14) and lean (LN) littermates (Fa/fa), also 6 weeks old (n=7) were purchased from Charles River Laboratories (Wilmington, Mass.). The fa/fa rats were divided randomly into two groups of 7 each, untreated fatty control (FC) and PM-treated (FPM) animals, the latter group receiving 2 g PM/L in the drinking water. […] All animals were housed individually with a light dark cycle of 12 hours each, and had free access to food and water. Progression of renal disease was assessed by measurements of plasma creatinine and urinary albumin and total urinary protein. Plasma creatinine concentration was measured by the Jaffe picric acid procedure, using Sigma kit #555-A. For urine collections, rats were housed in metabolic rat cages for 24 hr with free access to food and water. Several drops of toluene were added to the urine collection beaker to inhibit microbial growth. Urinary albumin was quantified by an ELISA assay. Rabbit antiserum to rat albumin and horseradish peroxidase (HRP)-conjugated goat anti-rabbit IgG were purchased from ICN Biomedical Research Products, Costa Mesa, Calif. Briefly, wells were coated with 50 ng of rat albumin (Sigma, St. Louis) in 0.1 M sodium carbonate buffer, pH 10.4, overnight at 4° C. […] After washing, horseradish peroxidase-conjugated goat anti-rabbit IgG (200 μL) was applied for 1 h at 25° C. with shaking, and the plate was developed with 200 μL of ABTS-reagent (2,2′-azino-bis(3-ethylbenzthiazoline-6-sulfonic acid) for 45 min at room temperature. Absorbance was measured at 405 nm. Total urinary protein was measured using the Sigma Microprotein-PR Kit. Based on preliminary experiments in which known amounts of PM were added to urine, PM increased the final absorbance readings in the protein assay, so that a correction (<10%) was applied for the PM content of the urine.

[8] = test system: streptozotocin (STZ)-induced diabetic rat; details: earlier study, cited from earlier work
[9] = test system: Zucker obese (fa/fa) rats; test: Dyslipidemia: plasma triglycerides and total cholesterol; format: in vivo, rat
Description: (§3) All experiments were carried out in accordance with the regulations of the Institutional Animal Care and Use Committee of the University of South Carolina. Female Zucker obese (fa/fa) rats 6 weeks old, (n=14) and lean (LN) littermates (Fa/fa), also 6 weeks old (n=7) were purchased from Charles River Laboratories (Wilmington, Mass.). The fa/fa rats were divided randomly into two groups of 7 each, untreated fatty control (FC) and PM-treated (FPM) animals, the latter group receiving 2 g PM/L in the drinking water. […] All animals were housed individually with a light dark cycle of 12 hours each, and had free access to food and water. Blood was obtained from the tail vein, using heparinized microhematocrit tubes, and plasma recovered by centrifugation at 4° C. All assays for proteins and metabolites in plasma and urine were performed by microplate adaptations of current methods, using a Wallac Victor Model 1420 multilabel plate reader (Wallac, Inc., Gaithersburg, Md.). […] Plasma glucose was measured using the Trinder assay Kit (Sigma #315) and total glycated hemoglobin (GlcHb) by boronate affinity chromatography (Sigma kit #442-B). Total plasma triglycerides and cholesterol were analyzed by enzymatic, calorimetric, end-point assays using Sigma kits for triglycerides (#37, GPO Trinder) and total cholesterol (#352). Insulin was measured using a direct sandwich ELISA for rat insulin (ALPCO, Windham, N.H.). Plasma PM concentration was measured by reverse phase high performance liquid chromatography (RP-HPLC) with fluorescence detection, using 293/393 nm excitation and emission wavelengths.

[10] = test system: Zucker obese (fa/fa) rats; test: Chemical modifications (AGE/ALEs) and fluorescence in skin collagen; format: in vivo, rat
Description: as §2

[11] = test system: Zucker obese (fa/fa) rats; test: Plasma glucose and total glycated hemoglobin (glycemic control); format: in vivo, rat; details: for Plasma glucose: mean ± SD, 7 animals
Description: as §3

[12] = Week 0, 2 g PM/L in drinking water
[13] = Week 16, 2 g PM/L in drinking water
[14] = Week 32, 2 g PM/L in drinking water

Cc1ncc(CO)c(CN)c1O [PM, Pyridoxamine]
Aorta compared with LN animals [1]: indistinguishable from those of LN animals in all but one animal
Changes in the aortic or coronary vasculature [1]: minimal changes
Inhibition of formation of advanced lipoxidation end-products (ALEs) [2]: potent inhibitor
Tolerability of the dose [3]: well tolerated
Systolic blood pressure course [4]: remained at initial values
Glycation of Skin Collagen FL ([5]; Week 0): 3.5 ± 0.2 mmol/mol lysine
Glycation of Skin Collagen FL ([5]; Week 11): 3.0 ± 0.1 mmol/mol lysine
Glycation of Skin Collagen FL ([5]; Week 32): 2.3 ± 0.3 mmol/mol lysine
Fasting plasma insulin ([6]; 32 weeks): 7.3 ± 0.6 µg/L
Effect on insulin resistance ([6]; fa/fa animals): did not significantly affect insulin resistance
Difference in urine volume between FC and FPM animals ([7]; at any point in the study): no significant differences in urine volume
Urinary volume ([7]; end of the study): 27.0 mL/day
Effect on development of proteinuria ([7]; fa/fa rat, confirmed by plasma creatinine): impressive protection against development of proteinuria
Albuminuria and plasma creatinine ([8]; STZ-induced diabetic rat): marked reduction in albuminuria and plasma creatinine
Development of renal disease ([8]; STZ-induced diabetic rat): significantly inhibited the development of renal disease
Effect on glycemic control ([8]; STZ-induced diabetic rat): no effect on glycemic control
Reduction in hyperlipidemia ([8]; STZ-rat): > 50%
Plasma cholesterol ([9]; FC rats approximately 250 mg/dL): ~150 mg/dL
Plasma triglycerides relative to the level in LN animals ([9]; after 10 weeks): about three
Plasma triglycerides relative to the values observed in FC animals ([9]; after 10 weeks): less than 50%
Effect on dyslipidemia, both triglycerides and cholesterol ([9]; fa/fa rat): significantly reduced dyslipidemia
Plasma cholesterol, higher than in LN animals ([9]; rat, in vivo): ~50%
HNE-lysine detectability in skin collagen ([10]; 8 months): not detectable
MDA-lysine trace amounts in skin collagen ([10]; 8 months, in 3 of 7 animals): < 2 μmol/mol FL
MDA-Lys in skin collagen ([10]; Week 32): Trace
Fluorescence of skin collagen ([10]; Week 32, necropsy samples, Ex=370 nm, Em=440 nm): 0.05 ± 0.02 Arbitrary Units/mol FL
Number of samples in which MDA-lysine was measurable ([10]; Week 32, of 7 animals): (3/7)^d
Effect on increase in CML and CEL in skin collagen ([10]; fa/fa rats): inhibited the increase in CML and CEL
Effect on increase in Maillard-type collagen fluorescence ([10]; necropsy samples, FC 2-fold higher than LN): prevented this increase
Effect on increase in pentosidine in skin collagen ([10]; through week 11): effective in limiting the increase in pentosidine
MDA-lysine detectability in skin collagen ([10]; until 8 months): no MDA-lysine was detectable
Significance of differences in pentosidine between FC and FPM rats ([10]; week 32, p=0.07): marginal
Effect on glycemia ([11]; 32 week experiment): no effect on glycemia
Glycated Hemoglobin [11, 12]: 6.8 ± 0.5%
Plasma glucose [11, 12]: 6.8 ± 0.5 mM
Glycated Hemoglobin [11, 13]: 6.5 ± 0.3%
Plasma glucose [11, 13]: 6.9 ± 0.6 mM
Glycated Hemoglobin [11, 14]: 6.8 ± 0.3%
Plasma glucose [11, 14]: 6.8 ± 0.5 mM

Source: US20020128295A1, “Use of pyridoxamine for the treatment and inhibition of obesity-related complications” (priority 2000, published 2002)
